The values below are quoted from earlier work in patent publication US4795645A, “Sustained release tablets of theophylline” (Yissum Research and Development, priority 1986, dated 1989).

For the series the following is noted: from oral solutions and plain uncoated tablets.

As to `Cn1c(=O)c2[nH]cnc2n(C)c1=O` [Theophylline, theophylline], the absorption entry is “rapidly, consistently and completely absorbed”.
